20 molecules from patent US20250051327A1, “MALT-1 MODULATORS” (EXSCIENTIA AI LIMITED, priority 2020, published 2025) can be followed below.

The subject of assay [1] is IL-2 secretion by human effector memory T cells (TEM). The experiment in a line: Effector memory T cells IL-2 release assay. The conditions noted are these: T-cell; human CD4+ effector memory T cells, CD3/CD28 bead stimulation, 24 h; read-out: CD4TC IL2 IC50. Type of assay: cell-based. Summed up:
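Human CD4+ effector memory T cells from healthy-donor buffy coats were stimulated with anti-CD3/CD28 Dynabeads and exposed to 10 semi-log compound doses (0.1% DMSO) for 24 h at 37 °C. Supernatant IL-2 was measured by HTRF, and IC50 came from a 4-parameter logistic fit to maximal IL-2. Viability was checked by flow cytometry.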

In assay [2] the target is Recombinant human MALT-1 (amino acids 340-824) (Homo sapiens (Human), UniProt Q9UDY8). The experiment in a line: MALT-1 inhibition assay (fluorogenic substrate Ac-LRSR-Rh110-DP). In kind it is biochemical. The conditions noted are these: recombinant human MALT-1, substrate Ac-LRSR-Rh110-DP. Summed up:
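Reactions were started with fluorogenic substrate Ac-LRSR-Rh110-DP (10 μM final) against 3 nM enzyme and kept dark at 25° C for 60 minutes. IC50 values came from 4-parameter logistic fits of percent inhibition calculated from relative fluorescence units.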

Recombinant human MALT-1 (amino acids 340-824), sequence (Q9UDY8 340-824): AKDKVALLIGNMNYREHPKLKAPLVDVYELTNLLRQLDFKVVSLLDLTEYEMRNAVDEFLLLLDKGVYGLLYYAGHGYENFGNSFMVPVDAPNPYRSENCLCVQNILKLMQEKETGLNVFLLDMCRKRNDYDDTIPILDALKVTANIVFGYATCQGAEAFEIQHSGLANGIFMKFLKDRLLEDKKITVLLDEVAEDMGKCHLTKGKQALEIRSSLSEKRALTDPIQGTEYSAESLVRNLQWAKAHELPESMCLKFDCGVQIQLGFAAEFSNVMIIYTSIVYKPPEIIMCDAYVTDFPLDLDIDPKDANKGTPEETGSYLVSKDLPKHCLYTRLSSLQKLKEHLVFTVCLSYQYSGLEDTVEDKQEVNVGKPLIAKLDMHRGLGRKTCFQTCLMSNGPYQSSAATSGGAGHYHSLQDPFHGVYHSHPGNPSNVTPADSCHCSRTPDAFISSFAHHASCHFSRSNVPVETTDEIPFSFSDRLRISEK

On to `CN(C(=O)[C@@H]1CNC(=O)C1)[C@@H](c1ccc(N2CCCc3c2cnc2cc(Cl)nn32)cc1)C(F)(F)F` (stereo in doubt) [CPD0073565, (3rel-S)—N-[(1S)-1-(4-{4-chloro-2,3,7,10-tetraazatricyclo[7.4.0.0^2,6]trideca-1(9),3,5,7-tetraen-10-yl}phenyl)-2,2,2-trifluoroethyl]-N-methyl-5-oxopyrrolidine-3-carboxamide], for which the figures for the concentration for half-maximal inhibition (IC50) in assay [1] and in assay [2] were 101 nM and 43 nM, respectively.

For the molecule `CN(C(=O)[C@H]1CC[C@H](C(=O)O)CC1)[C@@H](c1ccc(N2CCCc3c2cnc2cc(Cl)nn32)cc1)C(F)(F)F` [CPD0072442, (1r,4r)-4-{[(1S)-1-(4-{4-chloro-2,3,7,10-tetraazatricyclo[7.4.0.0^2,6]trideca-1(9),3,5,7-tetraen-10-yl}phenyl)-2,2,2-trifluoroethyl](methyl)carbamoyl}cyclohexane-1-carboxylic acid], the IC50 (as a rule, the concentration that gives 50% inhibition) in assay [1] came to 300 nM; in assay [2] it was 43 nM.

With `COCC1CCN(c2ccc([C@H](N(C)C(=O)C3CCS(=O)(=O)CC3)C(F)(F)F)cc2)c2cnc3cc(Cl)nn3c21` (stereo partly shown) [CPD0072775], the IC50 in assay [1] came out at 143 nM; in assay [2], 94 nM.

Consider `COC(C)c1c(Nc2ccc([C@H](N(C)C(=O)C3CCS(=O)(=O)CC3)C(F)(F)F)cn2)cnc2ccc(Cl)nc12` (stereo partly drawn) [CPD0019499, N-[(1S)-1-(6-{[6-chloro-4-(1-methoxyethyl)-1,5-naphthyridin-3-yl]amino}pyridin-3-yl)-2,2,2-trifluoroethyl]-N-methyl-1,1-dioxo-1λ^6-thiane-4-carboxamide], for which the IC50 in assay [1] is 190 nM; in assay [2], 80 nM.

On to `CN(C(=O)[C@H]1CCC(=O)N1)[C@@H](c1ccc(N2CCCc3c2cnc2cc(Cl)nn32)cc1)C(F)(F)F` (relative stereo) [CPD0073567, (2rel-R)-N-[(1S)-1-(4-{4-chloro-2,3,7,10-tetraazatricyclo[7.4.0.0^2,6]trideca-1(9),3,5,7-tetraen-10-yl}phenyl)-2,2,2-trifluoroethyl]-N-methyl-5-oxopyrrolidine-2-carboxamide], for which the half-inhibitory concentration (IC50) in assay [1] was determined as 119 nM; in assay [2], 35 nM.

On to `Cc1scnc1C(=O)N(C)[C@@H](c1ccc(N2CCCc3c2cnc2cc(Cl)nn32)cc1)C(F)(F)F` [CPD0019353, N-[(1S)-1-(4-{4-chloro-2,3,7,10-tetraazatricyclo[7.4.0.0^2,6]trideca-1(9),3,5,7-tetraen-10-yl}phenyl)-2,2,2-trifluoroethyl]-N,5-dimethyl-1,3-thiazole-4-carboxamide], for which the IC50 in assay [1] is 271 nM; in assay [2], 582 nM.

As to `Cc1ncc(C(=O)N(C)[C@@H](c2ccc(N3CCCc4c3cnc3cc(Cl)nn43)cc2)C(F)(F)F)s1` [CPD0019348, N-[(1S)-1-(4-{4-chloro-2,3,7,10-tetraazatricyclo[7.4.0.0^2,6]trideca-1(9),3,5,7-tetraen-10-yl}phenyl)-2,2,2-trifluoroethyl]-N,2-dimethyl-1,3-thiazole-5-carboxamide], the IC50 in assay [1] came out at 157 nM; in assay [2], 193 nM.

As to `C[C@H]1CCN(c2ccc([C@H](N(C)C(=O)[C@@H]3CCC(=O)NC3)C(F)(F)F)cc2)c2cnc3cc(Cl)nn3c21` (relative stereo) [CPD0074567, (3rel-R)-N-[(1S)-1-[4-[(13rel-S)-4-chloro-13-methyl-2,3,7,10-tetrazatricyclo[7.4.0.0^2,6]trideca-1(9),3,5,7-tetraen-10-yl]phenyl]-2,2,2-trifluoro-ethyl]-N-methyl-6-oxo-piperidine-3-carboxamide], the values for the IC50 in assay [1] and in assay [2] were 87 nM and 31 nM, respectively.

As to `COC(C)c1c(Nc2ccc([C@H](N(C)C(=O)C3CCS(=O)(=O)CC3)C(F)(F)F)cc2)cnn2cc(Cl)nc12` (stereo partly drawn) [CPD0072526, N-[(1S)-1-[4-[[2-chloro-8-(1-methoxyethyl)imidazo[1,2-b]pyridazin-7-yl]amino]phenyl]-2,2,2-trifluoro-ethyl]-N-methyl-1,1-dioxo-thiane-4-carboxamide], the IC50 in assay [1] was found to be 71 nM; in assay [2] it was 47 nM.

Regarding `Cc1ncsc1C(=O)N(C)[C@@H](c1ccc(N2CCCc3c2cnc2cc(Cl)nn32)cc1)C(F)(F)F` [CPD0019351, N-[(1S)-1-(4-{4-chloro-2,3,7,10-tetraazatricyclo[7.4.0.0^2,6]trideca-1(9),3,5,7-tetraen-10-yl}phenyl)-2,2,2-trifluoroethyl]-N,4-dimethyl-1,3-thiazole-5-carboxamide], the IC50 in assay [1] turned out to be 152 nM; in assay [2] it was 278 nM.

With `COC[C@]1(C)CCN(c2ccc([C@H](N(C)C(=O)[C@H]3CC[S@@+]([O-])CC3)C(F)(F)F)cc2)c2cnc3cc(Cl)nn3c21` (relative stereo) [CPD0073135, (1rel-s,4rel-s)-N-[(1S)-1-[4-[(13rel-R)-4-chloro-13-(methoxymethyl)-13-methyl-2,3,7,10-tetrazatricyclo[7.4.0.0^2,6]trideca-1(9),3,5,7-tetraen-10-yl]phenyl]-2,2,2-trifluoro-ethyl]-N-methyl-1-oxo-1λ^4-thiane-4-carboxamide], the 50% inhibitory concentration (IC50) in assay [1] stood at 130 nM; in assay [2] it was 106 nM.

In the case of `C[C@@H]1CCN(c2ccc([C@H](N(C)C(=O)[C@H]3CC[S@](=N)(=O)CC3)C(F)(F)F)cc2)c2cnc3cc(Cl)nn3c21` (relative stereo) [CPD0073193, (1rel-r,4rel-r)-N-[(1S)-1-{4-[(13rel-R)-4-chloro-13-methyl-2,3,7,10-tetraazatricyclo[7.4.0.0^2,6]trideca-1(9),3,5,7-tetraen-10-yl]phenyl}-2,2,2-trifluoroethyl]-1-imino-N-methyl-1-oxo-1λ^6-thiane-4-carboxamide], the IC50 in assay [1] is 68 nM; in assay [2] it was 22 nM.

For the molecule `CC1CCN(c2ccc([C@H](N(C)C(=O)C3CCS(=O)(=O)CC3)C(F)(F)F)cn2)c2cnc3cc(Cl)nn3c21` (stereo partly drawn) [CPD0021812, N-[(1S)-1-(6-{4-chloro-13-methyl-2,3,7,10-tetraazatricyclo[7.4.0.0^2,6]trideca-1(9),3,5,7-tetraen-10-yl}pyridin-3-yl)-2,2,2-trifluoroethyl]-N-methyl-1,1-dioxo-1λ^6-thiane-4-carboxamide], the concentration for half-maximal inhibition (IC50) came to 213 nM in assay [1] and 108 nM in assay [2].

On to `CN(C(=O)CC1CS(=O)(=O)C1)[C@@H](c1ccc(N2CCCc3c2cnc2cc(Cl)nn32)cc1)C(F)(F)F` [CPD0072798, N-[(1S)-1-(4-{4-chloro-2,3,7,10-tetraazatricyclo[7.4.0.0^2,6]trideca-1(9),3,5,7-tetraen-10-yl}phenyl)-2,2,2-trifluoroethyl]-2-(1,1-dioxo-1λ^6-thietan-3-yl)-N-methylacetamide], for which the results for the half-inhibitory concentration (IC50) in assay [1] and in assay [2] were 200 nM and 142 nM, respectively.

In the case of `CN(C(=O)c1cncn1C)[C@@H](c1ccc(N2CCCc3c2cnc2cc(Cl)nn32)cc1)C(F)(F)F` [CPD0019344, N-[(1S)-1-(4-{4-chloro-2,3,7,10-tetraazatricyclo[7.4.0.0^2,6]trideca-1(9),3,5,7-tetraen-10-yl}phenyl)-2,2,2-trifluoroethyl]-N,1-dimethyl-1H-imidazole-5-carboxamide], the IC50 in assay [1] is 295 nM; in assay [2], 213 nM.

Take `CC(=O)N1CC[C@H](C(=O)N(C)[C@@H](c2ccc(N3CCCc4c3cnc3cc(Cl)nn43)cc2)C(F)(F)F)C1` (relative stereo) [CPD0073189, (3rel-S)-1-acetyl-N-[(1S)-1-(4-{4-chloro-2,3,7,10-tetraazatricyclo[7.4.0.0^2,6]trideca-1(9),3,5,7-tetraen-10-yl}phenyl)-2,2,2-trifluoroethyl]-N-methylpyrrolidine-3-carboxamide]: the values for the half-inhibitory concentration (IC50) in assay [1] and in assay [2] were 160 nM and 76 nM, respectively.

In the case of `CCN(C(=O)C1CCS(=O)(=O)CC1)[C@@H](c1ccc(N2CCCc3c2cnc2cc(Cl)nn32)cc1)C(F)(F)F` [CPD0073918, N-[(1S)-1-(4-{4-chloro-2,3,7,10-tetraazatricyclo[7.4.0.0^2,6]trideca-1(9),3,5,7-tetraen-10-yl}phenyl)-2,2,2-trifluoroethyl]-N-ethyl-1,1-dioxo-1λ^6-thiane-4-carboxamide], the IC50 in assay [1] was determined as 145 nM; in assay [2] it was 106 nM.

`CN(C(=O)CN1CCS(=O)(=O)CC1)[C@@H](c1ccc(N2CCCc3c2cnc2cc(Cl)nn32)cc1)C(F)(F)F` [CPD0073572, N-[(1S)-1-(4-{4-chloro-2,3,7,10-tetraazatricyclo[7.4.0.0^2,6]trideca-1(9),3,5,7-tetraen-10-yl}phenyl)-2,2,2-trifluoroethyl]-2-(1,1-dioxo-1λ^6-thiomorpholin-4-yl)-N-methylacetamide]: the IC50 was 253 nM in assay [1] and 163 nM in assay [2].

With `CN(C(=O)[C@@H]1CCN(C(=O)CO)C1)[C@@H](c1ccc(N2CCCc3c2cnc2cc(Cl)nn32)cc1)C(F)(F)F` (relative stereo) [CPD0073976, (3 rel-R)—N-[(1S)-1-(4-{4-chloro-2,3,7,10-tetraazatricyclo[7.4.0.0^2,6]trideca-1(9),3,5,7-tetraen-10-yl}phenyl)-2,2,2-trifluoroethyl]-1-(2-hydroxyacetyl)-N-methylpyrrolidine-3-carboxamide], the IC50 in assay [1] turned out to be 149 nM; in assay [2] it was 57 nM.

For `CN(C(=O)[C@H]1CC[S@@+]([O-])CC1)[C@@H](c1ccc(N2CCC3(CC3)c3c2cnc2cc(Cl)nn32)cc1)C(F)(F)F` (relative stereo) [CPD0072778, (1rel-s,4rel-s)-N-[(1S)-1-(4-{4′-chloro-2′,3′,7′,10′-tetraazaspiro[cyclopropane-1,13′-tricyclo[7.4.0.0^2,6]tridecane]-1′(9′),3′,5′,7′-tetraen-10′-yl}phenyl)-2,2,2-trifluoroethyl]-N-methyl-1-oxo-1λ^4-thiane-4-carboxamide], the IC50 in assay [1] stood at 42 nM; in assay [2], 58 nM.
